Measured values taken from patent US6627227B2, “Use of saw palmetto to prevent atherosclerosis” (priority 2000, dated 2003).

Tests used:
[1] = Second study: patient questionnaire, cardiac events in patients taking finasteride; type: in vivo; conditions: 4 events over 242 patient-years; control 3.5%/yr.
Method: Finasteride was being administered at a dosage of a single oral 5 mg tablet a day. This is the same tablet used in treatment of BPH as disclosed in U.S. Pat. No. 5,175,155 and such dosage applies in the present invention. However, use of a 2 mg or 10 mg oral tablet is contemplated. In the second study patients of the practice were given a questionnaire. Various patients had been treated with finasteride for varying lengths of time. Only those on the drug for at least one year were considered. The average time on finasteride was 3 years. The number of cardiac events occurring in the patients taking finasteride was only 4 events over 242 patient-years. (1.6%/yr.) In the control group 26 events occurred in the 3 years prior over 732 patient-years. (3.5%/yr.) The 45% decrease observed in cardiac events is believed to be significant. (90% Cl equal to 1.4% to 3.7%)

[2] = Retrospective chart review of cardiac events in prostate cancer patients on LHRH inhibitors vs controls; type: in vivo; conditions: treated patients vs controls
Method: The patients on either Leuprolide or Goserelin were treated with the recommended doses indicated for the treatment of prostatic carcinoma, at either one or three month intervals depending on the preparation used. Leuprolide was dosed at 7.5 mg monthly (single intramuscular injection) or at 22.5 mg at 3 month intervals (single intramuscular injection). Goserelin was dosed at 3.6 mg monthly or at a dose of 10.8 mg at 3 month intervals (subcutaneous injection). The various groups of office patients were evaluated by chart review. In groups 2 and 3 only those on drug for at least one year were considered. Cardiac event is defined either the history of a heart attack or occurrence of coronary artery bypass or angioplasty. In control groups only events occurring in the 3 years prior to the questionnaire are charted.

SMILES | cardiac event rate [1] [%/yr.] | heart attacks compared with controls [2]
CC(C)(C)NC(=O)[C@H]1CC[C@H]2[C@@H]3CC[C@H]4NC(=O)C=C[C@]4(C)[C@H]3CC[C@]12C [finasteride, 4-azaandrost-1-ene-17-carboxamide, N-(1,1-dimethylethyl)-3-oxo-(5a 17B)-] | 1.6 | 
CC(=O)O.CCNC(=O)[C@@H]1CCCN1C(=O)[C@H](CCCNC(=N)N)NC(=O)[C@H](CC(C)C)NC(=O)[C@@H](CC(C)C)NC(=O)[C@H](Cc1ccc(O)cc1)NC(=O)[C@H](CO)NC(=O)[C@H](Cc1c[nH]c2ccccc12)NC(=O)[C@H](Cc1c[nH]cn1)NC(=O)[C@@H]1CCC(=O)N1 [Lupron, 5-oxo-L-prolyl-L-histidyl-L-tryptophyl-L-seryl-L-tyrosyl-D-leucyl-L-leucyl-L-arginyl-N-ethyl-L-prolinamide acetate salt] |  | fewer heart attacks than controls
CC(C)C[C@H](NC(=O)[C@@H](COC(C)(C)C)NC(=O)[C@H](Cc1ccc(O)cc1)NC(=O)[C@H](CO)NC(=O)[C@H](Cc1c[nH]c2ccccc12)NC(=O)[C@H](Cc1cnc[nH]1)NC(=O)[C@@H]1CCC(=O)N1)C(=O)N[C@@H](CCCNC(=N)N)C(=O)N1CCC[C@H]1C(=O)NNC(N)=O [Zoladex, pyro-Glu-His-Trp-Ser-Tyr-D-Ser(Bu^t)-Leu-Arg-Pro-Azgly-NH2 acetate] |  | fewer heart attacks than controls
